The first assay addresses T1, Matrix metalloproteinase-9 (Homo sapiens, UniProt P14780). Nature of the assay: Inhibition of MOCAc-Pro-Leu-Gly-Leu-A2p (Dnp)-Ala-Arg-NH2 binding to human matrix metalloprotease-9 (MMP-9). The note with it: read-out: Log 1/Ki (converted).
T1 sequence (P14780 whole entry): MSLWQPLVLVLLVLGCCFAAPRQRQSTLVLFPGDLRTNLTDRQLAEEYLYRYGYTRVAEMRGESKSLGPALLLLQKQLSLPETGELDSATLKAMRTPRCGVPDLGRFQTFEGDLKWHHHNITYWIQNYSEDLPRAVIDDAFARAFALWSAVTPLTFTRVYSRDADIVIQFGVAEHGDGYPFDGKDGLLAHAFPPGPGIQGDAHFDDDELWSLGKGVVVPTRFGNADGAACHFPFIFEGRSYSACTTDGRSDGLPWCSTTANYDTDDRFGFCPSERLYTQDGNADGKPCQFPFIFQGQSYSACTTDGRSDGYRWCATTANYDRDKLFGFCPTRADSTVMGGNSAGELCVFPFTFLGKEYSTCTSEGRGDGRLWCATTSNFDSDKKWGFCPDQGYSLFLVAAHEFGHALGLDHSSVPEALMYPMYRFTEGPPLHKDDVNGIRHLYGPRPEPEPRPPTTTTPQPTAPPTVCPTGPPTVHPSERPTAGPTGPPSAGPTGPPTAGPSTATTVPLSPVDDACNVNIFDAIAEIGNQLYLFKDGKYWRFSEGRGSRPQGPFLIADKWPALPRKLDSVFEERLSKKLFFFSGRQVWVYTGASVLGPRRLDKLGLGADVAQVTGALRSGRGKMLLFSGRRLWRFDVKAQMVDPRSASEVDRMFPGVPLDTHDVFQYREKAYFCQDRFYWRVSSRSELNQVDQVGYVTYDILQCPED
Turning to `CCOP(=O)(c1ccc(OC)cc1)N1Cc2cc(N)ccc2C[C@@H]1C(=O)NO` (stereo partly drawn), the Ki is 11 nM.

As to `CCOP(=O)(c1ccc(C)cc1)N1Cc2ccccc2C[C@@H]1C(=O)NO` (stereo partly drawn), the Ki is 41.8 nM.

Take `CCOP(=O)(c1ccc(N)cc1)N1Cc2ccccc2C[C@@H]1C(=O)NO` (stereo partly drawn): the Ki was 95.5 nM.

Take `CCOP(=O)(c1ccc(Oc2ccccc2)cc1)N1Cc2ccccc2C[C@@H]1C(=O)NO` (stereo partly drawn): the Ki was 0.0794 nM.

For `CCOP(=O)(CCc1ccccc1)N1Cc2ccccc2C[C@@H]1C(=O)NO` (stereo partly drawn), the Ki was 38.3 nM.

As to `CCOP(=O)(c1ccc(Oc2ccncc2)cc1)N1Cc2ccccc2C[C@@H]1C(=O)NO` (stereo partly drawn), the Ki is 0.6 nM.

For `CCOP(=O)(c1ccc(OC)cc1)N1Cc2ccccc2C[C@H]1C(=O)NO` (stereo partly drawn), the Ki is 349 nM.

With `CCOP(=O)(c1ccc(Oc2ccc(N)cc2)cc1)N1Cc2ccccc2C[C@@H]1C(=O)NO` (stereo partly drawn), the Ki was 0.1 nM.

In the case of `CCOP(=O)(c1ccc(OC)cc1)N1CCC[C@@H]1C(=O)NO` (stereo partly drawn), the Ki is 316 nM.

Take `CCOP(=O)(c1ccc(OC)cc1)N1CC2Nc3ccccc3C2C[C@@H]1C(=O)NO` (stereo partly drawn): the Ki is 1.13 nM.

In the case of `COc1ccc(P(=O)(OCCc2ccc(-c3ccccc3)cc2)N2Cc3ccccc3C[C@@H]2C(=O)NO)cc1` (stereo partly drawn), the Ki is 6.47 nM.

In the case of `CCOP(=O)(c1ccccc1)N1Cc2ccccc2C[C@@H]1C(=O)NO` (stereo partly drawn), the Ki is 42.7 nM.

On to `CCN(CC)CCOP(=O)(c1ccc(OC)cc1)N1Cc2ccccc2C[C@@H]1C(=O)NO` (stereo partly drawn), for which the Ki was 16.7 nM.

Regarding `COc1ccc(P(=O)(OCC2CCCCC2)N2Cc3ccccc3C[C@@H]2C(=O)NO)cc1` (stereo partly drawn), the Ki was 4.56 nM.

Turning to `COc1ccc(P(=O)(OCCc2ccccn2)N2Cc3ccccc3C[C@@H]2C(=O)NO)cc1` (stereo partly drawn), the Ki was 3.42 nM.

Take `CCOCCOc1ccc(P(=O)(OCC)N2Cc3ccccc3C[C@@H]2C(=O)NO)cc1` (stereo partly drawn): the Ki is 14.2 nM.

On to `COc1ccc(P(=O)(OC)N2Cc3ccccc3C[C@@H]2C(=O)NO)cc1` (stereo partly drawn), for which the Ki is 2.03 nM.

As to `CCOP(=O)(c1cccc(F)c1)N1Cc2ccccc2C[C@@H]1C(=O)NO` (stereo partly drawn), the Ki is 80.2 nM.

For the compound `CCOP(=O)(c1ccc(OC)cc1)N1Cc2ccccc2C[C@@H]1C(=O)NO` (stereo partly drawn), the Ki is 5.05 nM.

Consider `CCOP(=O)(c1ccc(F)cc1)N1Cc2ccccc2C[C@@H]1C(=O)NO` (stereo partly drawn), for which the Ki is 51.9 nM.

With `CCOP(=O)(c1cccs1)N1Cc2ccccc2C[C@@H]1C(=O)NO` (stereo partly drawn), the Ki was 59.2 nM.

`CCOP(=O)(c1ccccc1F)N1Cc2ccccc2C[C@@H]1C(=O)NO` (stereo partly drawn): the Ki was 32.1 nM.

Consider `CCOP(=O)(c1ccc(OC)cc1)N1CCN(C(=O)OCc2ccccc2)C[C@@H]1C(=O)NO` (stereo partly drawn), for which the Ki is 5.2 nM.

As for `CCOCCOP(=O)(c1ccc(OC)cc1)N1Cc2ccccc2C[C@@H]1C(=O)NO` (stereo partly drawn), the Ki was 6.35 nM.

Consider `CCOP(=O)(c1ccncc1)N1Cc2ccccc2C[C@@H]1C(=O)NO` (stereo partly drawn), for which the Ki is 278 nM.

As for `COc1ccc(P(=O)(OC2CCCCC2)N2Cc3ccccc3C[C@@H]2C(=O)NO)cc1` (stereo partly drawn), the Ki was 6.58 nM.

Regarding `CCOP(=O)(c1ccc(-c2ccccc2)cc1)N1Cc2ccccc2C[C@@H]1C(=O)NO` (stereo partly drawn), the Ki was 0.31 nM.

On to `CCOP(=O)(c1ccc(OC)cc1)N1Cc2ccsc2C[C@@H]1C(=O)NO` (stereo partly drawn), for which the Ki was 3.8 nM.

A further assay has as its target T1, Matrix metalloproteinase-9. Nature of the assay: Inhibition constant for human matrix metalloprotease-9 (MMP-9).
Conditions: not given
In turn, `CCOP(=O)(c1ccc(C)cc1)N1Cc2ccccc2C[C@@H]1C(=O)NO` (stereo partly drawn) displayed a Ki of 41.8 nM.

Compound `CCOP(=O)(c1ccc(OC)cc1)N1Cc2ccccc2C[C@H]1C(=O)NO` (stereo partly drawn) gave a Ki of 349 nM.

The compound `CCOP(=O)(c1ccccc1)N1Cc2ccccc2C[C@@H]1C(=O)NO` (stereo partly drawn) gave a Ki of 42.7 nM.

Consider `CCOP(=O)(c1ccc(OC)cc1)N1Cc2ccccc2C[C@@H]1C(=O)NO` (stereo partly drawn), for which the Ki was 5.05 nM.

In the case of `CCOP(=O)(c1ccc(F)cc1)N1Cc2ccccc2C[C@@H]1C(=O)NO` (stereo partly drawn), the Ki was found to be 51.9 nM.
